Data from patent EP0583821A1, “Atriopeptins, guanylate cyclase activators, and phosphodiesterase inhibitors as treatment for glaucoma, hydrocephalus and cerebral edema (cranial fluid volume dysfunction)” (THE GENERAL HOSPITAL CORPORATION, priority 1987, dated 1988).

Biological target: T1, guanylate cyclase (Oryctolagus cuniculus, UniProt G1TXB5)
T1 sequence (G1TXB5 28-1056): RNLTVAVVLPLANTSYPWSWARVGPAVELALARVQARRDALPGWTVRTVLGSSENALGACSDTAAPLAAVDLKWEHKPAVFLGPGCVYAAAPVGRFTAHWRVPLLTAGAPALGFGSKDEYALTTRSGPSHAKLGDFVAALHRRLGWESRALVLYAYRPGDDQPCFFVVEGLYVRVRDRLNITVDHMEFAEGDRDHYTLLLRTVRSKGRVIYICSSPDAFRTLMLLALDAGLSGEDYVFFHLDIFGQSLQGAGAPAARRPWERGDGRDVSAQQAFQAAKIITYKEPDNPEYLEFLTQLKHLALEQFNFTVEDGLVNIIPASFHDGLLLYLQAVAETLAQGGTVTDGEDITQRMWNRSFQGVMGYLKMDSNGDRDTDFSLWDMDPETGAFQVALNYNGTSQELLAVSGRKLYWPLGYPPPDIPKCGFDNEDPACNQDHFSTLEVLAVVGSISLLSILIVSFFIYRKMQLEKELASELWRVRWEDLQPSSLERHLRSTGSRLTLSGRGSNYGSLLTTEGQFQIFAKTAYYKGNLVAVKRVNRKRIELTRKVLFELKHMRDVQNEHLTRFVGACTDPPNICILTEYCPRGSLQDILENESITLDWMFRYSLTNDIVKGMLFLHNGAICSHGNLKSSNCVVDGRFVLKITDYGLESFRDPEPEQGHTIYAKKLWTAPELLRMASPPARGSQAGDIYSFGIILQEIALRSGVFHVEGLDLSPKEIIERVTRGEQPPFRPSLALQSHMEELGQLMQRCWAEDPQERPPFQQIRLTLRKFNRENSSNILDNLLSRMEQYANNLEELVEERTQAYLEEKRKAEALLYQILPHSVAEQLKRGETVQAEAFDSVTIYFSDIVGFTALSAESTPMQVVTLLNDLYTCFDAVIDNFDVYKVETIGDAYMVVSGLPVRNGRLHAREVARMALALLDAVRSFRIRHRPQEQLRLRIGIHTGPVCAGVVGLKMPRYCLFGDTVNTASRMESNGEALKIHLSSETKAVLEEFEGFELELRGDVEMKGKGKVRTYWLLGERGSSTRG
Experiment: rANP activation of guanylate cyclase in membrane fractions of whole choroid plexus
Type: biochemical, rabbit
Design: tissues were homogenized (10 mg wet weight per milliliter); from tissue; host or cells: rabbit cerebral microvessels, choroid plexus, kidney, ciliary process, pia-arachnoid, cerebellum; 100,000 g P1 pellet
Description: The effect of rANP on membrane-bound guanylate cyclase and adenylate cyclase activity in various brain-barrier tissues and tissue fractions from rabbit was compared with its activity in cerebrum and cerebellum. Guanylate cyclase was measured as the rate of cyclic GMP formation by modifications of the technique of Waldman et al., supra, incorporated herein by reference. Briefly, tissues were homogenized (10 mg wet weight per milliliter) in 50 mM tris-HCl, pH 8.0, 1 mM EDTA, 1 mM dithiothreitol, and 250 mM sucrose and centrifuged at 100,000g to obtain a P1 pellet. Reaction tubes contained (in 0.3 ml), 50 mM tris, pH 7.6, 6 mM MnCl₂, 0.5 mM 3-isobutyl, 1-methylxanthine (IBMX), 10 mM theophylline, 3 mM GTP, hormone (in 0.03 ml containing 2.5 mM ascorbic acid and 0.1% bovine serum albumin), and 0.06 ml of P1 fraction (40 to 60 ug of protein). The reaction (4 minutes at 30°C) was started by addition of GTP and terminated by addition of 0.3 ml of 150 mM sodium acetate (pH 4.0) and boiling for 3 minutes. Cyclic GMP formed was subsequently measured by radioimmunoassay as described in example 6, infra. Under these conditions, guanylate cyclase activity was linear with time and tissue concentration. Adenylate cyclase activity in P1 fractions was measured according to the method described by Nathanson, et al., Science; 204:843 (1979); Mol. Pharmacol. 18:199 (1980), see Figure 1C . […] Neurosci. Abstr., 10, 899 (1984); Nathanson, et al., Soc. Neurosci. Abstr., 12, 1257 (1986), incorporated herein by reference, but with a lower concentration (0.025%) of trypsin and a rotating tissue tumbler which allowed cleaner fractionation of epithelial cells from erythrocytes and vascular components.
Adenylate cyclase activity could be stimulated by isoproterenol through β-adrenergic receptors known to be present in this tissue. Values shown are the mean ± range for duplicate enzyme determinations, each assayed for cyclic AMP or cyclic GMP in triplicate. […]

## Ser-Leu-Arg-Arg-atriopeptin III (APIII) [rANP 1-28]
Choroid plexus, SEM, N = 5
  Vmax for stimulation of basal activity: 58% ± 16%
Whole choroid plexus, five separate experiments, SEM, 4 min
  Ka for activation of the enzyme: 9.8 ± 5.1 nM

## rANP 13-28 (DRIGAQSGLGCNSFRY; Atrial natriuretic peptide; UniProt P01161 135-150, looked up, fragment)
Choroid plexus
  stimulation of guanylate cyclase: almost no stimulation
